The values below come from article PMC3308197 (Journal of Medicinal Chemistry, 2012).

For the data set the following is noted: from measured plasma protein binding in vitro of 92%.

Compound `Cc1cc(-c2nnc(N)nc2-c2ccccc2)cc(C(F)(F)F)n1` [Compound 4k, 6-[2-Methyl-6-(trifluoromethyl)pyridin-4-yl]-5-phenyl-1,2,4-triazin-3-amine] yielded an unbound plasma fraction of 8%.
